These results are taken from patent publication US11691969B2, “Pyridazinones as PARP7 inhibtors” (Ribon Therapeutics, Inc., priority 2019, dated 2023).

This assay deals with PARP7 (Homo sapiens (Human), UniProt Q7Z3E1). Kind of assay: TR-FRET assay: displacement of biotinylated Probe A from the TIPARP active site (Enzymatic Assay for Inhibition of PARP7). The assay is classed as binding. The conditions noted are these: TIPARP 6 nM, Probe A 2 nM, 25° C. As to the method:
Example A. Enzymatic Assay for Inhibition of PARP7
Displacement of Probe A, a biotinylated probe binding to the TIPARP active site, was measured using a time-resolved fluorescence energy transfer (TR-FRET) assay. 20 nL of a dose response curve of each test compound was spotted in black 384-well polystyrene proxiplates (Perkin Elmer) using a Mosquito (TTP Labtech). Reactions were performed in a 8 μl volume by adding 6 μL of TIPARP and Probe A in assay buffer (20 mM HEPES pH=8, 100 mM NaCl, 0.1% bovine serum albumin, 2 mM DTT and 0.002% Tween20), incubating with test compound at 25° C. for 30 min, then adding 2 μL of ULight-anti 6×His and LANCE Eu-W1024 labeled streptavidin (Perkin Elmer). The final concentrations of TIPARP and Probe A were 6 nM and 2 nM, respectively. The final concentration of ULight-anti 6×His and LANCE Eu-W1024 labeled streptavidin were 4 nM and 0.25 nM, respectively. Reactions were incubated at 25° C. for an additional 30 min, then read on an Envision platereader equipped with a LANCE/DELFIA top mirror (Perkin Elmer) using excitation of 320 nm and emission of 615 nm and […] with a […]. The ratio of the 665/615 nm emission were calculated for each well to determine the amount of complex of TIPARP and Probe Ain each well. Control wells containing a negative control of 0.25% DMSO vehicle or a positive control of 100 μM 5-(5-(piperidin-4-yloxy)isoindolin-2-yl)-4-(trifluoromethyl)pyridazin-3(2H)-one were used to calculate the % inhibition as described below:
[formula] where TRFcmpd is the TR-FRET ratio from the compound treated well, TRFmin is the TR-FRET ratio from the 5-(5-(piperidin-4-yloxy)isoindolin-2-yl)-4-(trifluoromethyl)pyridazin-3(2H)-one—treated positive control well and TRFmax is the TR-FRET ratio from the DMSO-treated negative control well. The % inhibition values were plotted as a function of compound concentration and the following 4-parameter fit was applied to derive the IC50 values:
[formula] where top and bottom are normally allowed to float, but may be fixed at 100 or 0 respectively in a 3-parameter fit. The Hill Coefficient is normally allowed to float but may also be fixed at 1 in a 3-parameter fit. Y is the % inhibition and X is the compound concentration. Synthesis of Probe A
On the technique in general: In TR-FRET formats the signal depends on donor and acceptor labels being close together.

Structures are written as SMILES.

Chain of PARP7 (Q7Z3E1 whole entry): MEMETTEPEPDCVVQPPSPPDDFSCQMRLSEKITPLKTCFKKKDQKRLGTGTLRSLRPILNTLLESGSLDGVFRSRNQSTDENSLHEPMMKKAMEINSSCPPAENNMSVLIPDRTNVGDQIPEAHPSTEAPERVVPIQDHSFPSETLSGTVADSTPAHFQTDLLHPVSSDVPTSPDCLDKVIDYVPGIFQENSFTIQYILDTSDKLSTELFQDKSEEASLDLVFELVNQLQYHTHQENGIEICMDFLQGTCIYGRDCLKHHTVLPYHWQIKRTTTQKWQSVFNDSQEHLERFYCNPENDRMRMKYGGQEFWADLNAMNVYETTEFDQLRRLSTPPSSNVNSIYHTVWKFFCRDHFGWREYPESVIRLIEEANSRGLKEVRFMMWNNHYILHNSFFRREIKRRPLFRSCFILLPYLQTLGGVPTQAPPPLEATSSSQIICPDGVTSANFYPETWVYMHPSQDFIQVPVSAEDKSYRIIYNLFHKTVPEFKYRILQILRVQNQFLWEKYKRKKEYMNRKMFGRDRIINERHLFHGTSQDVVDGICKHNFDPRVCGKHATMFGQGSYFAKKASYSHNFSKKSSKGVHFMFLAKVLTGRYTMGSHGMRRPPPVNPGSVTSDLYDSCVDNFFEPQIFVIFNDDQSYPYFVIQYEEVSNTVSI

`C[C@@H](CN[C@@H]1CCN(C2CCN(c3ncc(C(F)(F)F)cn3)CC2)C1=O)Nc1cn[nH]c(=O)c1C(F)(F)F` [Example 26B, 5-(((S)-1-(((R)-2-oxo-1-(1-(5-(trifluoromethyl)pyrimidin-2-yl)piperidin-4-yl)pyrrolidin-3-yl)amino)propan-2-yl)amino)-4-(trifluoromethyl)pyridazin-3(2H)-one] gave an IC50 below 100 nM.

Compound `C[C@@H](COCC(=O)N(C)C1CCN(c2ncc(C(F)(F)F)cn2)CC1)Oc1cn[nH]c(=O)c1C(F)(F)F` [Example 25, (S)-N-methyl-2-(2-((6-oxo-5-(trifluoromethyl)-1,6-dihydropyridazin-4-yl)oxy)propoxy)-N-(1-(5-(trifluoromethyl)pyrimidin-2-yl)piperidin-4-yl)acetamide] gave a half-inhibitory concentration (IC50) below 100 nM.

In turn, `C[C@@H](CO[C@@H]1C(=O)N(C2CCN(c3ncc(C(F)(F)F)cn3)CC2)CC1(C)C)Nc1cn[nH]c(=O)c1C(F)(F)F` [Example 35A, 5-(((S)-1-(((S)-4,4-dimethyl-2-oxo-1-(1-(5-(trifluoromethyl)pyrimidin-2-yl)piperidin-4-yl)pyrrolidin-3-yl)oxy)propan-2-yl)amino)-4-(trifluoromethyl)pyridazin-3(2H)-one] yielded an IC50 of at least 1000 nM.

Take `C[C@H](Nc1cn[nH]c(=O)c1C(F)(F)F)C(=O)N[C@@H]1CCN(C2CCN(c3ncc(C(F)(F)F)cn3)CC2)C1=O` [Example 61, (S)—N—((R)-2-oxo-1-(1-(5-(trifluoromethyl)pyrimidin-2-yl)piperidin-4-yl)pyrrolidin-3-yl)-2-((6-oxo-5-(trifluoromethyl)-1,6-dihydropyridazin-4-yl)amino)propanamide]: the IC50 was below 100 nM.

`C[C@@H](COC1CCN(C2CCN(c3ccc(C#N)cn3)CC2)C1=O)Oc1cn[nH]c(=O)c1C(F)(F)F` (stereo partly drawn) [Example 30, 6-(4-(2-oxo-3-((S)-2-((6-oxo-5-(trifluoromethyl)-1,6-dihydropyridazin-4-yl)oxy)propoxy)pyrrolidin-1-yl)piperidin-1-yl)nicotinonitrile] had an IC50 below 100 nM.

In the case of `C[C@@H](CO[C@@H]1CCCN(C2CCN(c3ncc(C(F)(F)F)cn3)CC2)C1=O)Nc1cn[nH]c(=O)c1C(F)(F)F` [Example 34B, (R)-3-((S)-2-((6-oxo-5-(trifluoromethyl)-1,6-dihydropyridazin-4-yl)amino)propoxy)-1′-(5-(trifluoromethyl)pyrimidin-2-yl)-[1,4′-bipiperidin]-2-one], the IC50 is below 100 nM.

Regarding `C[C@@H](CO[C@H]1CCCN(C2CCN(c3ncc(C(F)(F)F)cn3)CC2)C1=O)Nc1cn[nH]c(=O)c1C(F)(F)F` [Example 34A, (S)-3-((S)-2-((6-oxo-5-(trifluoromethyl)-1,6-dihydropyridazin-4-yl)amino)propoCyxy)-1′-(5-(trifluoromethyl)pyrimidin-2-yl)-[1,4′-bipiperidin]-2-one], the IC50 was below 100 nM.

With `C[C@@H](CO[C@@H]1CCN(C2CCN(c3ncc(C(F)(F)F)cn3)CC2)C1=O)Nc1cn[nH]c(=O)c1C(F)(F)F` [Example 10B, 5-((S)-1-((R)-1-(1-(5-(trifluoromethyl)pyrimidin-2-yl)piperidin-4-yl)-2-oxopyrrolidin-3-yloxy)propan-2-ylamino)-4-(trifluoromethyl)pyridazin-3(2H)-one], the IC50 is below 100 nM.

For `COC[C@@H](CO[C@@H]1CCN(C2CCN(c3cnc(C(F)(F)F)cn3)CC2)C1=O)Nc1cn[nH]c(=O)c1C(F)(F)F` [Example 18B], the IC50 was below 100 nM.

In turn, `CCN(C(=O)COC[C@H](C)Nc1cn[nH]c(=O)c1C(F)(F)F)C1CCN(c2ncc(C(F)(F)F)cn2)CC1` [Example 7, (S)—N-ethyl-2-(2-((6-oxo-5-(trifluoromethyl)-1,6-dihydropyridazin-4-yl)amino)propoxy)-N-(1-(5-(trifluoromethyl)pyrimidin-2-yl)piperidin-4-yl)acetamide] registered an IC50 below 100 nM.

As for `COC[C@@H](CO[C@@H]1CCN(C2CCN(c3ccc(C#N)cn3)CC2)C1=O)Oc1cn[nH]c(=O)c1C(F)(F)F` [Example 50B, 6-(4-((R)-3-((S)-3-methoxy-2-((6-oxo-5-(trifluoromethyl)-1,6-dihydropyridazin-4-yl)oxy)propoxy)-2-oxopyrrolidin-1-yl)piperidin-1-yl)nicotinonitrile], the IC50 was below 100 nM.

`C[C@@H](COCC(=O)N(C)C1CCN(c2ncc(C(F)(F)F)cn2)CC1)Oc1cn[nH]c(=O)c1Br` [Example 28, (S)-2-(2-((5-bromo-6-oxo-1,6-dihydropyridazin-4-yl)oxy)propoxy)-N-methyl-N-(1-(5-(trifluoromethyl)pyrimidin-2-yl)piperidin-4-yl)acetamide] came in with an IC50 below 100 nM.

Consider `COC[C@@H](CO[C@@H]1CCN(C2CCN(c3ncc(C(F)(F)F)cn3)CC2)C1=O)Nc1cn[nH]c(=O)c1C(F)(F)F` [Example 19B, 5-(((S)-1-methoxy-3-(((R)-2-oxo-1-(1-(5-(trifluoromethyl)pyrimidin-2-yl)piperidin-4-yl)pyrrolidin-3-yl)oxy)propan-2-yl)amino)-4-(trifluoromethyl)pyridazin-3(2H)-one], for which the IC50 was below 100 nM.

`C[C@@H](CO[C@@H]1CCN(C2CCN(c3ncc(C(F)(F)F)cn3)CC2)C1=O)Oc1cn[nH]c(=O)c1Cl` [Example 47B, 4-chloro-5-(((S)-1-(((R)-2-oxo-1-(1-(5-(trifluoromethyl)pyrimidin-2-yl)piperidin-4-yl)pyrrolidin-3-yl)oxy)propan-2-yl)oxy)pyridazin-3(2H)-one] registered an IC50 below 100 nM.

`COC[C@@H](CO[C@@H]1CCN(C2CCN(c3ccc(C#N)cn3)CC2)C1=O)Oc1cn[nH]c(=O)c1Br` [Example 55B, 6-(4-((R)-3-((S)-2-((5-bromo-6-oxo-1,6-dihydropyridazin-4-yl)oxy)-3-methoxypropoxy)-2-oxopyrrolidin-1-yl)piperidin-1-yl)nicotinonitrile]: the IC50 was below 100 nM.

`C[C@@H](CO[C@@H]1CCN([C@@H]2CCN(c3ncc(C(F)(F)F)cn3)C[C@@H]2F)C1=O)Nc1cn[nH]c(=O)c1C(F)(F)F` (single isomer, unassigned) [Example 39A] registered an IC50 below 100 nM.

`C[C@@H](CO[C@@H]1CCN(C2CCN(c3ncc(C(F)F)cn3)CC2)C1=O)Nc1cn[nH]c(=O)c1C(F)(F)F` [Example 15B, 5-(((S)-1-(((R)-1-(1-(5-(difluoromethyl)pyrimidin-2-yl)piperidin-4-yl)-2-oxopyrrolidin-3-yl)oxy)propan-2-yl)amino)-4-(trifluoromethyl)pyridazin-3(2H)-one] came in with an IC50 below 100 nM.

Compound `C[C@@H](CO[C@@H]1CCN([C@H]2[C@@H]3CN(c4ncc(C(F)(F)F)cn4)C[C@@H]32)C1=O)Nc1cn[nH]c(=O)c1C(F)(F)F` [Example 43, 5-(((S)-1-(((R)-2-oxo-1-((1R,5S,6s)-3-(5-(trifluoromethyl)pyrimidin-2-yl)-3-azabicyclo[3.1.0]hexan-6-yl)pyrrolidin-3-yl)oxy)propan-2-yl)amino)-4-(trifluoromethyl)pyridazin-3(2H)-one] registered an IC50 below 100 nM.

Take `C[C@@H](COCC(=O)N(C)C1CN(c2ncc(C(F)(F)F)cn2)C1)Nc1cn[nH]c(=O)c1C(F)(F)F` [Example 5, (S)—N-methyl-2-(2-(6-oxo-5-(trifluoromethyl)-1,6-dihydropyridazin-4-ylamino)propoxy)-N-(1-(5-(trifluoromethyl)pyrimidin-2-yl)azetidin-3-yl)acetamide]: the IC50 was below 100 nM.

Regarding `Cc1cnc(N2CCC(N3CC[C@@H](OC[C@H](C)Nc4cn[nH]c(=O)c4C(F)(F)F)C3=O)CC2)nc1` [Example 44, 5-(((S)-1-(((R)-1-(1-(5-methylpyrimidin-2-yl)piperidin-4-yl)-2-oxopyrrolidin-3-yl)oxy)propan-2-yl)amino)-4-(trifluoromethyl)pyridazin-3(2H)-one], the IC50 is below 100 nM.

`COC[C@@H](CO[C@H]1CCN(C2CCN(c3ncc(C)cn3)CC2)C1=O)Oc1cn[nH]c(=O)c1C(F)(F)F` [Example 52A, 5-(((S)-1-methoxy-3-(((S)-1-(1-(5-methylpyrimidin-2-yl)piperidin-4-yl)-2-oxopyrrolidin-3-yl)oxy)propan-2-yl)oxy)-4-(trifluoromethyl)pyridazin-3(2H)-one] yielded an IC50 of 100 to 1000 nM.

`C[C@@H](CO[C@@H]1CCN([C@H]2CCN(c3ncc(C(F)(F)F)cn3)C[C@@H]2F)C1=O)Nc1cn[nH]c(=O)c1C(F)(F)F` (single isomer, unassigned) [Example 38B] registered an IC50 below 100 nM.

For orientation: IC50 means the concentration needed to halve the response being measured. Read a low IC50 as higher potency.
